Source: patent US20090023687A1, “Method for Controlling Phytopathogenic Organisms” (SYNGENTA CROP PROTECTION, INC., priority 2005, published 2009)
Like-named read-outs stand apart in the source and are kept apart here.

Assays:
Type in all cases: in vivo
Phakopsora pachyrhizi [1] = test: Leaf disc test with Phakopsora pachyrhizi on glyphosate sensitive soybean, leaf disks treated (Example 4)
Description: (§1) A synergistic effect exists whenever the action of an active ingredient combination is greater than the action expected from the effect of the individual components.
(§2) The action to be expected (E) for a given active ingredient combination obeys the so-called COLBY formula and can be calculated as follows (COLBY, S. R. “Calculating synergistic and antagonistic responses of herbicide combination”. Weeds, Vol. 15, pages 20-22; 1967):
(§3) ppm=milligrams of active ingredient (=a.i.) per litre of spray mixture X=% action by active ingredient I using p ppm of active ingredient Y=% action by active ingredient II using q ppm of active ingredient.
(§4) According to Colby, the expected (additive) action of active ingredients I+II using p+q ppm of active ingredient is
(§5) If the action actually observed (O) is greater than the expected action (E), then the action of the combination is superadditive, i.e. there is a synergistic effect.
(§6) A series of leaf disc tests were conducted to show the effects of tank mixtures of glyphosate and pesticides or plant activators on Asian soybean rust. The soybean variety tested was brand Williams82 glyphosate sensitive soybean. The leaf source for the testing was the first trifoliate leaf. Six (6) repetitions for each formulation and at each rate were conducted. Treatment of the leaf disks with the recited active ingredients was conducted 4 weeks after planting. The leaves were inoculated with Phakopsora pachyrhizi (Asian soybean rust (ASR)) one (1) day after treatment. Evaluation of the leaf was conducted ten (10) days after inoculation and the mean percent infestation of the six repetitions is reported in Tables 8-11.
As glyphosate source Touchdown® HiTech or Zapp® QI was used. The fungicides were used as commercial formulations: Bion® WG50 plant activator comprising acibenzolar-S-methyl (Syngenta Corp.), Opus® SC125 fungicide comprising epoxiconazole commercially (BASF AG), Tilt® EC250 fungicide comprising propiconazole (Syngenta Corp.), Quadris® SC250 fungicide comprising azoxystrobin (Syngenta Corp.). The rates of the active ingredients used in the tests are set in Tables 8-11 as mg active ingredient (a.i.)/L.

Phakopsora pachyrhizi [2] = test: whole plant or invertebrate; conditions: in Glycine max, foliar, read-out: % activity observed
Description: as §1, §2, §3, §4, §5
as §6, with “the ortho-substituted phenyl-amide (OPA) fungicides represented by structures F-5 and F-9” for “pesticides or plant activators”, “leaf” for “leaf disks”, “3 and 4.” for “8-11.”
The glyphosate source was Touchdown® HiTech herbicide (Syngenta Corp.), containing the potassium salt of glyphosate and no adjuvant system. The compound OPA F-5 used was a compound of formula F-5, wherein the ratio of racemic compounds of formula F-3 (syn) to racemic compounds of formula F-4 (anti) was 9:1. The compound OPA F-9 used was a compound of formula F-9, wherein the ratio of racemic compounds of formula F-7 (trans) to racemic compounds of formula F-8 (cis) was around 100:1. The fungicides used were EC100 formulations of OPA F-5 and OPA F-9 which are emulsion concentrates containing 100 ga.i./L. The rates of the active ingredients used in the tests are set in the table as mg active ingredient (a.i.)/L.

Puccinia recondita = test: Greenhouse trial with Puccinia recondita on glyphosate sensitive wheat (Example 3); conditions: read-out: % activity observed
Description: as §1, §2, §3, §4, §5
Greenhouse tests were conducted to show the effects of tank mixtures of glyphosate and the ortho-substituted phenyl-amide (OPA) fungicides represented by structures F-10, F-5 and F-9 on cereal rust Puccinia recondita. The wheat variety tested was brand Kanzler glyphosate sensitive wheat. Three (3) repetitions for each formulation and at each rate were conducted. Treatment of the plants with the recited active ingredients was conducted preventatively 16 days after planting. The leaves were inoculated with Puccinia recondita one (1) day after treatment. Evaluation of the leaf was conducted […] after inoculation and the mean percent infestation of the three repetitions is reported in Tables 5-7.
The glyphosate source was Zapp® QI herbicide containing the potassium salt of glyphosate as well as an adjuvant system. The compound OPA F-5 used was a compound of formula F-5, wherein the ratio of racemic compounds of formula F-3 (syn) to racemic compounds of formula F-4 (anti) was 9:1. The compound OPA F-9 used was a compound of formula F-9, wherein the ratio of racemic compounds of formula F-7 (trans) to racemic compounds of formula F-8 (cis) was around 100:1. The fungicides used were EC 100 formulations of OPA F-10, OPA F-5 and OPA F-9 which are emulsion concentrates containing 100 ga.i./L. The rates of the active ingredients used in the tests are set in Tables 5-7 as mg active ingredient (a.i.)/L.

Phakopsora pachyrhizi [3] = test: Application on whole plants: leaf disc test with Phakopsora pachyrhizi on glyphosate sensitive soybean (Example 5)
Description: as §1, §2, §3, §4, §5
(§7) A series of leaf disc tests were conducted to show the effects of tank mixtures of glyphosate and pesticides or plant activators on Asian soybean rust. The soybean variety tested was brand Williams82 glyphosate sensitive soybean. The leaf source for the testing was the first trifoliate leaf. Six (6) repetitions for each formulation and at each rate were conducted. Treatment of whole plants with the recited active ingredients was conducted 4 weeks after planting. After application, leaf disks were cut and inoculated with Phakopsora pachyrhizi (Asian soybean rust (ASR)) one (1) day after treatment. Evaluation of the leaf was conducted ten (10) days after inoculation and the mean percent infestation of the six repetitions is reported in Tables 12-14.
As glyphosate source Touchdown® HiTech or Zapp® QI was used. The fungicides were used as commercial formulations: Cantus® WG50 fungicide comprising boscalid (BASF AG), Quadris® SC250 fungicide and Bion® WG50 plant activator comprising acibenzolar-S-methyl. The rates of the active ingredients used in the tests are set in Tables 12-14 as g active ingredient (a.i.)/hectare (ha). The spray volume was 200 l/ha.

Phakopsora pachyrhizi [4] = test: Application on whole plants: leaf disc test with Phakopsora pachyrhizi on glyphosate tolerant soybean (Example 6)
Description: as §1, §2, §3, §4, §5
as §7, with “Leaf” for “A series of leaf”, “S40-R9” for “Williams82”, “tolerant” for “sensitive”, “[…]” for “of whole plants with the recited active ingredients was conducted 4 weeks after planting. After”, “15-17.” for “12-14.”
As glyphosate source Touchdown® HiTech or Zapp® QI was used. The fungicides were used as commercial formulations: Bravo® SC500 fungicide comprising chlorothalonil (Syngenta Corp.), Score® EC250 fungicide comprising difenaconazole (Syngenta Corp.) and Mancozeb 80WP fungicide comprising mancozeb. The rates of the active ingredients used in the tests are set in Tables 15-17 as g active ingredient (a.i.)/hectare (ha). The spray volume was 200 l/ha.

[5] = Epoxiconazole Opus SC125 0.2 mg a.i./L
[6] = Acibenzolar Bion WG50 6.7 mg a.i./L
[7] = Acibenzolar Bion WG50 20 mg a.i./L
[8] = Acibenzolar Bion WG50 10 g a.i./ha
[9] = Acibenzolar Bion WG50 60 g a.i./ha
[10] = Azoxystrobin Quadris SC250 0.2 mg a.i./L
[11] = Azoxystrobin Quadris SC250 0.7 mg a.i./L
[12] = Azoxystrobin Quadris SC250 50 g a.i./ha
[13] = Azoxystrobin Quadris SC250 100 g a.i./ha
[14] = Boscalid Cantus WG50 250 g a.i./ha
[15] = Boscalid Cantus WG50 500 g a.i./ha
[16] = Chlorothalonil Bravo SC500 83.3 g a.i./ha
[17] = Chlorothalonil Bravo SC500 1500 g a.i./ha
[18] = Difenoconazole Score EC250 5 g a.i./ha
[19] = Difenoconazole Score EC250 15 g a.i./ha
[20] = Propiconazole Tilt EC250 0.7 mg a.i./L

Fc1ccc([C@]2(Cn3cncn3)O[C@H]2c2ccccc2Cl)cc1 (racemic) [Epoxiconazole, epoxiconazole]
Activity observed % (Phakopsora pachyrhizi [1]; [5]): 19% | Leaf attack % (Phakopsora pachyrhizi [1]; [5]): 62%

Cn1cc(C(=O)Nc2ccccc2C2CC2C2CC2)c(C(F)F)n1 (racemic) [OPA F-9]
inhibition at 0.2 µg/mL (Phakopsora pachyrhizi [2]; OPA F-9 0.2 mg a.i./L): 0% | inhibition at 0.7 µg/mL (Phakopsora pachyrhizi [2]; OPA F-9 0.7 mg a.i./L): 0% | inhibition at 2.2 µg/mL (Phakopsora pachyrhizi [2]; OPA F-9 2.2 mg a.i./L): 24% | inhibition at 6.7 µg/mL (Phakopsora pachyrhizi [2]; OPA F-9 6.7 mg a.i./L): 74% | inhibition at 20 µg/mL (Phakopsora pachyrhizi [2]; OPA F-9 20 mg a.i./L): 100% | inhibition at 6.6 µg/mL (Puccinia recondita; OPA F-9 6.6 mg a.i./L): 81.9%

CSC(=O)c1cccc2nnsc12 [Acibenzolar, acibenzolar-S-methyl]
Activity observed % (Phakopsora pachyrhizi [1]; [6]): 0% | Leaf attack % (Phakopsora pachyrhizi [1]; [6]): 74% | Activity observed % (Phakopsora pachyrhizi [1]; [7]): 10% | Leaf attack % (Phakopsora pachyrhizi [1]; [7]): 62% | Activity observed % (Phakopsora pachyrhizi [3]; [8]): 19% | Leaf attack % (Phakopsora pachyrhizi [3]; [8]): 50% | Activity observed % (Phakopsora pachyrhizi [3]; [9]): 31% | Leaf attack % (Phakopsora pachyrhizi [3]; [9]): 43%

CO/C=C(/C(=O)OC)c1ccccc1Oc1cc(Oc2ccccc2C#N)ncn1 [Azoxystrobin, azoxystrobin]
Activity observed % (Phakopsora pachyrhizi [1]; [10]): 15% | Leaf attack % (Phakopsora pachyrhizi [1]; [10]): 68% | Activity observed % (Phakopsora pachyrhizi [1]; [11]): 60% | Leaf attack % (Phakopsora pachyrhizi [1]; [11]): 32% | Activity observed % (Phakopsora pachyrhizi [3]; [12]): 0% | Leaf attack % (Phakopsora pachyrhizi [3]; [12]): 62% | Activity observed % (Phakopsora pachyrhizi [3]; [13]): 29% | Leaf attack % (Phakopsora pachyrhizi [3]; [13]): 44%

O=C(Nc1ccccc1-c1ccc(Cl)cc1)c1cccnc1Cl [Boscalid, boscalid]
Activity observed % (Phakopsora pachyrhizi [3]; [14]): 7% | Leaf attack % (Phakopsora pachyrhizi [3]; [14]): 58% | Activity observed % (Phakopsora pachyrhizi [3]; [15]): 19% | Leaf attack % (Phakopsora pachyrhizi [3]; [15]): 50%

N#Cc1c(Cl)c(Cl)c(Cl)c(C#N)c1Cl [Chlorothalonil, chlorothalonil]
Activity observed % (Phakopsora pachyrhizi [4]; [16]): 0% | Leaf attack % (Phakopsora pachyrhizi [4]; [16]): 80% | Activity observed % (Phakopsora pachyrhizi [4]; [17]): 17% | Leaf attack % (Phakopsora pachyrhizi [4]; [17]): 50%

CC1COC(Cn2cncn2)(c2ccc(Oc3ccc(Cl)cc3)cc2Cl)O1 (centres unmarked) [Difenoconazole, difenaconazole]
Activity observed % (Phakopsora pachyrhizi [4]; [18]): 0% | Leaf attack % (Phakopsora pachyrhizi [4]; [18]): 50% | Activity observed % (Phakopsora pachyrhizi [4]; [19]): 0% | Leaf attack % (Phakopsora pachyrhizi [4]; [19]): 50%

Cn1cc(C(=O)Nc2ccccc2-c2ccc(C#CC(C)(C)C)cc2)c(C(F)F)n1 [OPA F-10]
inhibition at 2.2 µg/mL (Puccinia recondita; OPA F-10 2.2 mg a.i./L): 0% | inhibition at 6.6 µg/mL (Puccinia recondita; OPA F-10 6.6 mg a.i./L): 0%

CCCC1COC(Cn2cncn2)(c2ccc(Cl)cc2Cl)O1 (centres unmarked) [Propiconazole, propiconazole]
Activity observed % (Phakopsora pachyrhizi [1]; [20]): 4% | Leaf attack % (Phakopsora pachyrhizi [1]; [20]): 74%

mancozeb
Activity observed % (Phakopsora pachyrhizi [4]; Mancozeb WP80 750 g a.i./ha): 47% | Leaf attack % (Phakopsora pachyrhizi [4]; Mancozeb WP80 750 g a.i./ha): 32% | Activity observed % (Phakopsora pachyrhizi [4]; Mancozeb WP80 1500 g a.i./ha): 37% | Leaf attack % (Phakopsora pachyrhizi [4]; Mancozeb WP80 1500 g a.i./ha): 38%
